Source: PubChem BioAssay AID248 (DTP/NCI, 2004)
“And” between values parts separate entries of the source, which are not always exact repeats. Equal entries are not always repeated. Toxic doses and inconclusive results are not listed.

Test system: L1210 leukemia ip in BDF1 mice, survival T/C
Experiment: NCI In Vivo Anticancer Drug Screen. Data for tumor model L1210 Leukemia (intraperitoneal) in B6D2F1 (BDF1) mice
Conditions: endpoint: mean survival time, higher = longer survival
In short: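 Transplanted-tumor mice were given test agent; controls received vehicle only. Survival readings from the two groups were divided (treated over control).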

[1] = dose: 50.0 mg/kg/injection, schedule: Q01DX009 (ip), vehicle: saline with Tween-80
[2] = dose: 100.0 mg/kg/injection, schedule: Q01DX009 (ip), vehicle: saline with Tween-80
[3] = dose: 50.0 mg/kg/injection, schedule: Q01DX001 (ip), vehicle: saline
[4] = dose: 100.0 mg/kg/injection, schedule: Q01DX001 (ip), vehicle: saline
[5] = dose: 200.0 mg/kg/injection, schedule: Q01DX001 (ip), vehicle: saline
[6] = dose: 400.0 mg/kg/injection, schedule: Q01DX001 (ip), vehicle: saline
[7] = dose: 12.5 mg/kg/injection, schedule: Q01DX009 (ip), vehicle: saline with Tween-80
[8] = dose: 25.0 mg/kg/injection, schedule: Q01DX009 (ip), vehicle: saline with Tween-80
[9] = dose: 100.0 mg/kg/injection, schedule: Q04DX003 (ip), vehicle: saline with Tween-80
[10] = dose: 200.0 mg/kg/injection, schedule: Q04DX003 (ip), vehicle: saline with Tween-80
[11] = dose: 400.0 mg/kg/injection, schedule: Q04DX003 (ip), vehicle: saline with Tween-80
[12] = dose: 100.0 mg/kg/injection, schedule: Q04DX003 (ip), vehicle: saline
[13] = dose: 200.0 mg/kg/injection, schedule: Q04DX003 (ip), vehicle: saline
[14] = dose: 400.0 mg/kg/injection, schedule: Q04DX003 (ip), vehicle: saline
[15] = dose: 100.0 mg/kg/injection, schedule: Q04DX003 (ip), vehicle: Klucel (hydroxypropylcellulose) (HPC)
[16] = dose: 200.0 mg/kg/injection, schedule: Q04DX003 (ip), vehicle: Klucel (hydroxypropylcellulose) (HPC)
[17] = dose: 400.0 mg/kg/injection, schedule: Q04DX003 (ip), vehicle: Klucel (hydroxypropylcellulose) (HPC)
[18] = dose: 100.0 mg/kg/injection, schedule: Q01DX001 (ip), vehicle: Klucel (hydroxypropylcellulose) (HPC)
[19] = dose: 200.0 mg/kg/injection, schedule: Q01DX001 (ip), vehicle: Klucel (hydroxypropylcellulose) (HPC)
[20] = dose: 400.0 mg/kg/injection, schedule: Q01DX001 (ip), vehicle: Klucel (hydroxypropylcellulose) (HPC)

## NC(CC(=O)CCl)C(=O)O (centres undefined)
dose: 9.4 mg/kg/injection, schedule: Q01DX009 (ip), vehicle: saline
  T/C: 107 % of control
dose: 18.8 mg/kg/injection, schedule: Q01DX009 (ip), vehicle: saline
  T/C: 102 % of control
dose: 22.0 mg/kg/injection, schedule: Q04DX003 (ip), vehicle: saline
  T/C: 121 % of control
dose: 75.0 mg/kg/injection, schedule: Q01DX001 (ip), vehicle: carboxymethylcellulose (CMC)
  T/C: 121 % of control
dose: 75.0 mg/kg/injection, schedule: Q01DX009 (ip), vehicle: carboxymethylcellulose (CMC)
  T/C: 88 % of control
dose: 150.0 mg/kg/injection, schedule: Q01DX001 (ip), vehicle: carboxymethylcellulose (CMC)
  T/C: 109 % of control

## O=C(c1ccccc1)c1ccc(Br)cc1O
dose: 100.0 mg/kg/injection, schedule: Q01DX001 (ip), vehicle: carboxymethylcellulose (CMC)
  T/C: 105 % of control
dose: 200.0 mg/kg/injection, schedule: Q01DX001 (ip), vehicle: carboxymethylcellulose (CMC)
  T/C: 98 % of control
dose: 400.0 mg/kg/injection, schedule: Q01DX001 (ip), vehicle: carboxymethylcellulose (CMC)
  T/C: 100 % of control

## O=C(O)c1cc(Br)c(Br)s1
[1]
  T/C: 98 % of control
[2]
  T/C: 105 % of control

## CC1C(Br)C(=O)NC(=O)N1Cc1ccccc1 (centres undefined)
dose: 100.0 mg/kg/injection, schedule: Q01DX Z (ip), vehicle: methylcellulose (MC)
  T/C: 92 % of control
dose: 200.0 mg/kg/injection, schedule: Q01DX Z (ip), vehicle: methylcellulose (MC)
  T/C: 94 % of control

## COC1OC2COc3ccccc3OC2C(NC(N)=S)C1OC (centres undefined)
dose: 100.0 mg/kg/injection, schedule: Q01DX009 (ip), vehicle: gum acacia
  T/C: 107 % of control
dose: 200.0 mg/kg/injection, schedule: Q01DX009 (ip), vehicle: gum acacia
  T/C: 102 % of control
dose: 400.0 mg/kg/injection, schedule: Q01DX009 (ip), vehicle: gum acacia
  T/C: 93 % of control

## O=C1NC(=O)C(c2ccc(Cl)cc2)N1 (centres undefined)
[3]
  T/C: 100 % of control
[4]
  T/C: 94 % of control
[5]
  T/C: 97 % of control
[6]
  T/C: 96 % of control

## O=C1NC(=O)C2C3C=CC(C12)C1C2C(=O)NC(=O)C2C31 (centres undefined)
[7]
  T/C: 102 % of control
[8]
  T/C: 95 % of control
[1]
  T/C: 111 % of control
[2]
  T/C: 178 % of control
dose: 400.0 mg/kg/injection, schedule: Q01DX009 (ip), vehicle: saline with Tween-80
  T/C: 90 % of control

## CC(=O)OC1CCSCC1
[9]
  T/C: 101 % of control
[10]
  T/C: 93 % of control
[11]
  T/C: 103 % of control

## O=C1c2ccccc2C(C(C/C(=N/O)c2ccccc2)c2ccccc2)c2ccccc21 (centres undefined)
[9]
  T/C: 93 % of control
[10]
  T/C: 93 % of control
[11]
  T/C: 100 % of control

## CC(=O)c1ccc(C(=O)NCCCc2c(C)nc(N)[nH]c2=O)cc1
[9]
  T/C: 95 % of control
[10]
  T/C: 90 % of control
[11]
  T/C: 90 % of control

## CCO/C=N\c1[nH]ncc1C#N
dose: 50.0 mg/kg/injection, schedule: Q01DX009 (ip), vehicle: Klucel (hydroxypropylcellulose) (HPC)
  T/C: 93 % of control
dose: 100.0 mg/kg/injection, schedule: Q01DX009 (ip), vehicle: Klucel (hydroxypropylcellulose) (HPC)
  T/C: 107 % of control
dose: 200.0 mg/kg/injection, schedule: Q01DX009 (ip), vehicle: Klucel (hydroxypropylcellulose) (HPC)
  T/C: 103 % of control

## COc1ccc(OC(=S)N(C)C)cc1
[9]
  T/C: 94 % of control
[10]
  T/C: 88 % of control
[11]
  T/C: 102 % of control

## Cc1cc(Cl)ccc1NC(=O)OCCOc1ccc([N+](=O)[O-])cc1
[7]
  T/C: 107 % of control
[8]
  T/C: 91 % of control
[1]
  T/C: 110 % of control

## N#C/C(=C\C1CCCCC1Cl)C1CCC([N+](=O)[O-])CC1 (centres undefined)
dose: 50.0 mg/kg/injection, schedule: Q04DX002 (ip), vehicle: saline with Tween-80
  T/C: 91 % of control
dose: 100.0 mg/kg/injection, schedule: Q04DX002 (ip), vehicle: saline with Tween-80
  T/C: 91 % of control
dose: 200.0 mg/kg/injection, schedule: Q04DX002 (ip), vehicle: saline with Tween-80
  T/C: 97 % of control

## NS(=O)(=O)c1ccc(C(=O)NO)cc1
[12]
  T/C: 100 % of control
[13]
  T/C: 110 % of control
[14]
  T/C: 102 % of control

## COc1ccccc1/C=C1\SC(=O)N(CCNC(C)=O)C1=O
[4]
  T/C: 98 % of control
[5]
  T/C: 100 % of control
[6]
  T/C: 96 % of control

## CCOC(=O)c1c(Cl)c(Cl)c(C(=O)OCC)c(Cl)c1Cl
dose: 100.0 mg/kg/injection, schedule: Q01DX009 (ip), vehicle: saline sonified
  T/C: 101 % of control
[15]
  T/C: 101 % of control
dose: 200.0 mg/kg/injection, schedule: Q01DX009 (ip), vehicle: saline sonified
  T/C: 97 % of control
[16]
  T/C: 95 % of control
dose: 400.0 mg/kg/injection, schedule: Q01DX009 (ip), vehicle: saline sonified
  T/C: 95 % of control
[17]
  T/C: 92 % of control

## COc1cc(C=O)cc(OC)c1OC
[15]
  T/C: 93 % of control
[16]
  T/C: 93 % of control
[17]
  T/C: 87 % of control

## COc1cc(NC(C)CCCN)c2ncccc2c1 (centres undefined)
dose: 25.0 mg/kg/injection, schedule: Q04DX003 (ip), vehicle: saline with Tween-80
  T/C: 104 % of control
dose: 50.0 mg/kg/injection, schedule: Q04DX003 (ip), vehicle: saline with Tween-80
  T/C: 95 % of control
[9]
  T/C: 95 % of control and 105 % of control

## COC(=O)C1CN(Cc2ccccc2)C(=O)C1=O (centres undefined)
[3]
  T/C: 100 % of control
[4]
  T/C: 100 % of control
[5]
  T/C: 90 % of control
[6]
  T/C: 96 % of control

## CC1CC[N-]CC1.CC1CC[N-]CC1.CC1CC[N-]CC1.CC1CC[N-]CC1.O=C([O-])C(=O)[O-].O=C([O-])C(=O)[O-].[Nb+5].[O-][O-].[O-][O-].[Pt+4]
dose: 0.25 mg/kg/injection, schedule: Q01DX009 (ip), vehicle: saline
  T/C: 96 % of control
dose: 0.39 mg/kg/injection, schedule: Q04DX003 (ip), vehicle: saline
  T/C: 110 % of control
dose: 0.5 mg/kg/injection, schedule: Q01DX009 (ip), vehicle: saline
  T/C: 93 % of control
dose: 0.78 mg/kg/injection, schedule: Q04DX003 (ip), vehicle: saline
  T/C: 110 % of control
dose: 1.0 mg/kg/injection, schedule: Q01DX009 (ip), vehicle: saline
  T/C: 98 % of control
dose: 1.56 mg/kg/injection, schedule: Q04DX003 (ip), vehicle: saline
  T/C: 101 % of control
dose: 2.0 mg/kg/injection, schedule: Q01DX009 (ip), vehicle: saline
  T/C: 102 % of control
dose: 3.12 mg/kg/injection, schedule: Q04DX003 (ip), vehicle: saline
  T/C: 96 % of control and 111 % of control

## CCN(CC)C(=S)Oc1c(C(C)(C)C)cc([N+](=O)[O-])c(C)c1[N+](=O)[O-]
dose: 100.0 mg/kg/injection, schedule: Q04DX002 (ip), vehicle: Klucel (hydroxypropylcellulose) (HPC)
  T/C: 90 % of control
dose: 200.0 mg/kg/injection, schedule: Q04DX002 (ip), vehicle: Klucel (hydroxypropylcellulose) (HPC)
  T/C: 100 % of control
dose: 400.0 mg/kg/injection, schedule: Q04DX002 (ip), vehicle: Klucel (hydroxypropylcellulose) (HPC)
  T/C: 97 % of control

## CNC(=O)NCCOC(=O)NC
dose: 100.0 mg/kg/injection, schedule: Q01DX009 (ip), vehicle: saline
  T/C: 94 % of control
[12]
  T/C: 96 % of control
dose: 200.0 mg/kg/injection, schedule: Q01DX009 (ip), vehicle: saline
  T/C: 98 % of control
[13]
  T/C: 101 % of control
dose: 400.0 mg/kg/injection, schedule: Q01DX009 (ip), vehicle: saline
  T/C: 107 % of control
[14]
  T/C: 101 % of control

## O=c1[nH]c(/C=C/c2ccccc2)c(S(=O)(=O)N2CCCCC2)c(=O)[nH]1
[18]
  T/C: 93 % of control
[19]
  T/C: 87 % of control
[20]
  T/C: 93 % of control

## O=C(Nc1cccc(C(F)(F)F)c1)Nc1c(Oc2ccc(Cl)c(Cl)c2)ccc(Cl)c1S(=O)(=O)O
[12]
  T/C: 103 % of control
[13]
  T/C: 94 % of control

## O=C(/C(=C1\SS/C(=C(/C(=O)c2ccccc2)c2ccccc2)S1)c1ccccc1)c1ccccc1
[18]
  T/C: 114 % of control
[15]
  T/C: 100 % of control
[19]
  T/C: 108 % of control
[16]
  T/C: 97 % of control
[20]
  T/C: 104 % of control
[17]
  T/C: 94 % of control

## Cc1ccc(C)c(C(C)NC(=O)NCCCl)c1 (centres undefined)
[15]
  T/C: 91 % of control
[16]
  T/C: 88 % of control
[17]
  T/C: 96 % of control
